Patent US7708998B2, “Methods of inhibiting unwanted cell proliferation using hedgehog antagonists” (Curis, Inc., priority 2000, dated 2010)

Experiments:
Format in all cases: cell-based
[1] = system: Shh-induced Gli-transcription; experiment: Gli-Luc assay in 10T1/2(s12) cells activated with OCT-SHH; conditions: Gli-Luc response, OCT-SHH 0.3 μg/ml
Protocol: Compounds to be tested are dissolved in DMSO to a concentration of 10 mM, and stored at −20° C. To activate the Hedgehog pathway in the assay cells, an octylated (lipid-modified) form of the N-terminal fragment of the Sonic Hedgehog protein (OCT-SHH) is used. This N-terminal SHH fragment is produced bacterially.
Compounds may be tested in the “Gli-Luc” assay below, using the cell line 10T(s12), wherein the cells contain a Hedgehog-responsive reporter construct utilizing Luciferase as the reporter gene. In this way, Hedgehog pathway signaling activity can be measured via the Gli-Luc response.
10t1/2(s12) cells are plated in a 96-well micro-titer plate (MTP) at 20,000 cells/well in full medium [DMEM with 10% FBS]. Then plates are placed in the incubator for incubation overnight (O/N), at 37° C. and 5% CO2. After 24 h, the medium is replaced with Luciferase-assay medium (DMEM with 5% FBS). Compounds are thawed and diluted in assay medium at 3:1000 (about 300-fold) resulting in a starting concentration of about 30 μM.
Subsequently, 150 μl of each 30 μM sample is added to the first wells (in triplicate). The MTP samples are then diluted at 3-fold dilutions to a total of seven wells, ultimately resulting in a regiment of seven dilutions in triplicate, for each compound. Next, the protein ligand OCT-SHH is diluted in Luciferase-assay medium and added to each well at a final concentration of 0.3 μg/ml. Plates are then returned to the incubator for further incubation O/N, at 37° C. and 5% CO2. After about 24 h, plates are removed from the incubator and the medium is aspirated/discarded. Wells are washed once with assay buffer [PBS+1 mM Mg^2+ and 1 mM Ca^2+]. Then 50 μl of assay buffer is added to each well. The Luciferase assay reagent is prepared as described by the vendor (LucLite kit from Packard), and 50 μl is added to each well. Plates are incubated at room temperature (RT) for about 30 minutes after which the signals are read, again at RT, on a Topcount (Packard).

[2] = system: Shh signaling pathway in MEFs homozygous for ptc-lacZ; experiment: β-galactosidase activity in ptc-lacZ mouse embryonic fibroblasts; conditions: MEFs homozygous for ptc-lacZ (cell line 23-1), normalized to whole protein content
Source text: The Shh signaling pathway can be activated in these fibroblasts in cell culture, and that the level of β-galactosidase activity does reflect the degree of pathway activation.

[3] = system: hedgehog signaling in embryonic mouse lungs; experiment: embryonic mouse lung explants, Q-RT-PCR of gli-1 and Sp-C; conditions: E13.5 mouse lung explants, Q-RT-PCR normalized to GAPDH
Protocol: METHODS: E13.5 embryonic mouse lungs were dissected. Explants were grown exposed to the air-liquid interface in lung explant medium (DMEM based, additives optimized for the culture of mouse lungs) for 67 hrs. They were then processed for quantitative real-time PCR (Q-RT-PCR). Briefly, total ribonucleic acid (RNA) is isolated from the tissue and subjected to reverse transcription to generate DNA. This DNA is amplified in a polymerase chain reaction using gene-specific primers as well as primers for the ubiquitously expressed housekeeping gene GAPDH. The two primer sets are labeled with different fluorophores, allowing for quantification of both signals in the same reaction tube in a real-time PCR machine (TaqMan). When calculating the expression level of gli-1, the specific signal is normalized to the GAPDH signal, which serves as a measure of the total DNA used in the reaction.
METHODS: E13.5 old embryonic mouse lungs were dissected. Explants were grown submerged in lung explant medium (DMEM based, additives optimized for the culture of mouse lungs) for 50 hrs. They were then processed for Q-RT-PCR. Briefly, total ribonucleic acid (RNA) is isolated from the tissue and subjected to reverse transcription to generate DNA. […] The two primer sets are labeled with different fluorophores, allowing for quantification of both signals in the same reaction tube in a real-time PCR machine (TaqMan). […]

Compound | IC50 [1] | other results
CCC(=O)N1CCN(C(CC)c2nc3ccccc3c(=O)n2-c2ccc(C)cc2)C(C)C1 (stereo not drawn) [Compound 42] | < 5 µM | –
CC(c1nc2ccccc2c(=O)n1-c1ccc(F)cc1)N(C)C(=O)Nc1ccc(-c2ccccc2)cc1 (stereo not drawn) [Compound 56] | < 10 µM | –
O=C(Nc1cccc(C(F)(F)F)c1)NC(c1nc2ccccc2c(=O)n1-c1ccc(F)cc1)C1CC1 (stereo not drawn) [Compound 75] | < 5 µM | –
O=C(NCc1nc2ccccc2c(=O)n1-c1ccc(F)cc1)Nc1ccc(Cl)c([N+](=O)[O-])c1 [Compound 69] | < 0.5 µM | –
CC(c1nc2ccccc2c(=O)n1-c1ccc(F)cc1)N1CCN(C(=O)Nc2ccc(Cl)c(Cl)c2)CC1 (stereo not drawn) [Compound 43] | < 10 µM | –
CC(c1nc2ccccc2c(=O)n1-c1ccc(F)cc1)N(C)C(=O)Nc1cccc(C(F)(F)F)c1 (stereo not drawn) [Compound 11] | < 5 µM | –
CC(c1nc2ccccc2c(=O)n1-c1ccc(F)cc1)N(C)C(=O)Nc1ccc(Cl)c(C(F)(F)F)c1 (stereo not drawn) [Compound 61] | < 1 µM | –
CCCCc1ccc(C(=O)N(Cc2ccccc2)C(CC)c2nc3ccccc3c(=O)n2-c2ccc(C)cc2)cc1 (stereo not drawn) [Compound 40] | < 10 µM | –
CC(c1nc2ccccc2c(=O)n1-c1ccc(F)cc1)N(C)C(=O)Nc1ccc(Cl)c(Cl)c1 (stereo not drawn) [Compound 53] | < 1 µM | –
CC(c1nc2ccccc2c(=O)n1-c1ccc(F)cc1)N(C)C(=O)Nc1ccc([N+](=O)[O-])c(Cl)c1 (stereo not drawn) [Compound 62] | < 1 µM | –
CC(NC(=O)Nc1cccc(C(F)(F)F)c1)c1nc2ccccc2c(=O)n1-c1ccc(F)cc1 (stereo not drawn) [Compound 73] | < 5 µM | –
CCCN(C(=O)Nc1cccc(C(F)(F)F)c1)C(C)c1nc2ccccc2c(=O)n1-c1ccc(F)cc1 (stereo not drawn) [Compound 36] | < 5 µM | –
CC(c1nc2ccccc2c(=O)n1-c1ccc(F)cc1)N(C)C(=O)Nc1ccc(Cl)cc1[N+](=O)[O-] (stereo not drawn) [Compound 66] | < 10 µM | –
CCC(c1nc2ccccc2c(=O)[nH]1)N1CCN(C(=O)Nc2ccc(Cl)c(Cl)c2)C(C)C1 (stereo not drawn) [Compound 45] | < 5 µM | –
CCC(c1nc2ccccc2c(=O)[nH]1)N1CCN(C(=O)c2ccc(-c3ccccc3)cc2)C(C)C1 (stereo not drawn) [Compound 46] | < 0.5 µM | –
CCC(C)N(CCC(=O)NC1CCCc2ccccc21)C(=O)COc1ccc(Cl)cc1 (stereo not drawn) [Compound 49] | < 1 µM | –
CCCCCCCCC(=O)N(CCCCC)C(C)c1nc2ccccc2c(=O)n1-c1ccccc1 (stereo not drawn) [Compound 41] | < 10 µM | –
CC(c1nc2ccccc2c(=O)n1-c1ccc(F)cc1)N(C)C(=O)Nc1ccc(SC(F)(F)F)cc1 (stereo not drawn) [Compound 60] | < 5 µM | –
O=C(Cc1cccc(C(F)(F)F)c1)NCCc1nc2ccccc2c(=O)n1-c1ccc(F)cc1 [Compound 50] | < 1 µM | –
CCOOC(=O)c1cccc(NC(=O)N(C)C(C)c2nc3ccccc3c(=O)n2-c2ccc(F)cc2)c1 (stereo not drawn) [Compound 65] | < 10 µM | –
C[C@H]1CC[C@]2(NC1)O[C@H]1C[C@H]3[C@@H]4CC[C@H]5C[C@@H](O)CC[C@]5(C)[C@H]4CC[C@]3(C)[C@H]1[C@@H]2C [tomatidine] | – | β-galactosidase activity [2]: non-inhibitory
O=C(NCc1nc2ccccc2c(=O)n1-c1ccc(F)cc1)Nc1cccc(C(F)(F)F)c1 [Compound 44] | < 1 µM | –
CC(c1nc2ccccc2c(=O)n1-c1ccc(F)cc1)N(C)C(=O)Nc1cc(Cl)nc(Cl)c1 (stereo not drawn) [Compound 58] | < 5 µM | –

Compound | IC50 [1] | other results
O=C(NCc1nc2ccccc2c(=O)n1-c1ccc(F)cc1)Nc1ccc(Cl)c(Cl)c1 [Compound 68] | < 1 µM | –
CCOC(=O)c1ccccc1NC(=O)N(C)C(C)c1nc2ccccc2c(=O)n1-c1ccc(F)cc1 (stereo not drawn) [Compound 63] | < 10 µM | –
O=C(NCc1nc2ccccc2c(=O)n1-c1ccc(F)cc1)Nc1ccc(Cl)c(C(F)(F)F)c1 [Compound 5] | < 0.1 µM | –
CCCN(CCC(=O)NC1CCCc2ccccc21)C(=O)c1cc(OC)cc(OC)c1 (stereo not drawn) [Compound 47] | < 5 µM | –
O=C(NCCCc1nc2ccccc2c(=O)n1-c1ccc(F)cc1)Nc1cccc(C(F)(F)F)c1 [Compound 74] | < 5 µM | –
CC(c1nc2ccccc2c(=O)n1-c1ccc(F)cc1)N(C)C(=O)Nc1ccc(C(F)(F)F)cc1 (stereo not drawn) [Compound 54] | < 5 µM | –
O=C(NCc1nc2ccccc2c(=O)n1-c1ccc(F)cc1)Nc1cc(Cl)nc(Cl)c1 [Compound 6] | < 0.5 µM | –
CCCN(C(=O)Nc1cccc(Cl)c1)C(C)c1nc2ccccc2c(=O)n1-c1ccc(F)cc1 (stereo not drawn) [Compound 34] | < 5 µM | –
CC(c1nc2ccccc2c(=O)n1-c1ccc(F)cc1)N(C)C(=O)Nc1cccc(SC(F)(F)F)c1 (stereo not drawn) [Compound 52] | < 1 µM | –
Cc1c(NC(=O)N(C)C(C)c2nc3ccccc3c(=O)n2-c2ccc(F)cc2)cccc1[N+](=O)[O-] (stereo not drawn) [Compound 59] | < 5 µM | –
C[C@]12CCC(=O)C=C1CC[C@@H]1[C@@H]2[C@@H](O)C[C@@]2(C)[C@H]1CC[C@]2(O)C(=O)CO [hydrocortisone] | – | surfactant type C (Sp-C) expression [3]: comparable
CC(c1nc2ccccc2c(=O)n1-c1ccc(F)cc1)N(Cc1ccco1)C(=O)Nc1cccc(F)c1 (stereo not drawn) [Compound 31] | < 10 µM | –
CCC(C)N(CCC(=O)NC1CCCc2ccccc21)C(=O)c1cccc2ccccc12 (stereo not drawn) [Compound 48] | < 0.5 µM | –
CC(c1nc2ccccc2c(=O)n1-c1ccc(F)cc1)N(C)C(=O)Nc1ccc([N+](=O)[O-])cc1Cl (stereo not drawn) [Compound 64] | < 10 µM | –
CC(c1nc2ccccc2c(=O)n1-c1ccc(F)cc1)N(C)C(=O)Nc1cccc(F)c1 (stereo not drawn) [Compound 55] | < 5 µM | –
Cc1c(NC(=O)NCc2nc3ccccc3c(=O)n2-c2ccc(F)cc2)cccc1SC(F)(F)F [Compound 67] | < 5 µM | –
CC(c1nc2ccccc2c(=O)n1-c1ccc(F)cc1)N(C)C(=O)Nc1ccc([N+](=O)[O-])c(C(F)(F)F)c1 (stereo not drawn) [Compound 32] | < 5 µM | –
CC(c1nc2ccccc2c(=O)n1-c1ccc(F)cc1)N(C)C(=O)Nc1cccc(C#N)c1 (stereo not drawn) [Compound 51] | < 5 µM | –
CC(C)c1cccc(NC(=O)N(C)C(C)c2nc3ccccc3c(=O)n2-c2ccc(F)cc2)c1 (stereo not drawn) [Compound 57] | < 10 µM | –
CCC(c1nc2ccccc2c(=O)n1-c1ccc(C)cc1)N(CCc1ccccc1)C(=O)CCCCF (stereo not drawn) [Compound 39] | < 5 µM | –
CCCN(C(=O)Nc1cccc(OC)c1)C(C)c1nc2ccccc2c(=O)n1-c1ccc(F)cc1 (stereo not drawn) [Compound 38] | < 5 µM | –
COc1cccc(NC(=O)NCc2nc3ccccc3c(=O)n2-c2ccc(F)cc2)c1C [Compound 71] | < 10 µM | –
